Laboratory results published in US6887202B2, “Systems and methods for monitoring health and delivering drugs transdermally” (Science Applications International Corporation, priority 2000, dated 2005).
Where two headings read alike, the source gives them in different places.

Tests used:
α3/β4 nAChR [1] = molecular target: T1, α3/β4 nAChR (Rattus norvegicus, UniProt P04757+P12392); assay: Frontal chromatography with α3/β4 nAChR-IAM stationary phase ([3H]-EB marker); assay type: binding
T1 construct: expressed in transfected cells
T1 sequence (P04757 26-499): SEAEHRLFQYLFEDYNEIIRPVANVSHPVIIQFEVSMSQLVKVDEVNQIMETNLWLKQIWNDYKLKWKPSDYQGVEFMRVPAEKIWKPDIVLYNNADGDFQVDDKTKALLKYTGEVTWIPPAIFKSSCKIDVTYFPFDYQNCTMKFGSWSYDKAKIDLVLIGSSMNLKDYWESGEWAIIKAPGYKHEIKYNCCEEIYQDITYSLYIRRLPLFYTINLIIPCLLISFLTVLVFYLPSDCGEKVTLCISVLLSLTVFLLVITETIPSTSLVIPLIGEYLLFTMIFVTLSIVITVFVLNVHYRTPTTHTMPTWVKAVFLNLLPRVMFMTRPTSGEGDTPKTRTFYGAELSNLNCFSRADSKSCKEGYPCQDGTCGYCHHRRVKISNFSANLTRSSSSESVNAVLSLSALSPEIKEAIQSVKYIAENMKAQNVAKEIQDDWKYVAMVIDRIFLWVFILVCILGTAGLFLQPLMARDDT
T1 sequence (P12392 21-495): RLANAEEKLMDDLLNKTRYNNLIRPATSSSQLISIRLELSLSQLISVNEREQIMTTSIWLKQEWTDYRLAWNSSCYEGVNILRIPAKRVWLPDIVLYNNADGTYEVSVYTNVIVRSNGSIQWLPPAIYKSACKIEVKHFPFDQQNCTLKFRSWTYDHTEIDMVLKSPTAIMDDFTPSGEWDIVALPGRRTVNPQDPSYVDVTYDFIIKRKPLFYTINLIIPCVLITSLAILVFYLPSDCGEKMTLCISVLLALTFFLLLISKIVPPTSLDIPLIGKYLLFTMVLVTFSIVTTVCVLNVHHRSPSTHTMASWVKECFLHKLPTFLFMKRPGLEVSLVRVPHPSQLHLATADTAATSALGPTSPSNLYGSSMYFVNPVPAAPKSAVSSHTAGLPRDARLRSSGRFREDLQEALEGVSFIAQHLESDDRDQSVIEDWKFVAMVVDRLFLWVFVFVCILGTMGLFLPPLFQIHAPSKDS
Description: Rat whole forebrain or transfected cells are suspended in 50 mM Tris-HCI, pH 7.4, (buffer A), homogenized for 30 seconds with Brinkmann Polytron, and centrifuged at 40,000×g for 10 min at 4° C. The pellet is resuspended in 6 ml of 2% deoxycholate or 2% cholate in buffer A and stirred for 2 hours. The mixture is centrifuged at 35,000×g for 30 minutes, and the supernatant containing nAChR-deoxycholate solution is collected.
Dried IAM particles are suspended in 4 ml of the obtained detergent solutions containing nAChR subunits or subtypes. For the immobilization of one nAChR subtype, the mixture of IAM-detergent-receptor is stirred for 1 hour at room temperature. The suspension is dialyzed against 2×1 L buffer A for 24 hours at 4° C. The IAM LC support with immobilized nAChRs is then washed with buffer A, centrifuged and the solid collected.
Chromatography based on nAChR-LAMcolumn or nAChR-liposome-Superdex 200 column: The nAChR-IAM particles or nAChR-Superdex gel beads are packed in a HR5/2 glass column and connected to a HPLC pump. […] All chromatographic experiments are performed at flow rate 0.4 ml/min at room temperature.
The chromatographic data is summed up in 1-min intervals and smoothed using the Microsoft Excel program with a 10 point moving average.

α3/β4 nAChR [2] = molecular target: T1, α3/β4 nAChR; assay: Ligand binding assay using cell membrane homogenates
GABAA receptor [3] = conditions: read-out: Kd, Binding Assays; classical binding assays
GABAA receptor [4] = assay: Frontal chromatography on immobilized GABAA receptor (GR-IAM), [3H]-flunitrazepam marker; assay type: binding, rat
Description: Supernatant is discarded.
All chromatographic experiments are performed at flow rate 0.4 ml/min at room temperature. […] The chromatographic data is summed up in 1-min intervals and smoothed using the Microsoft Excel program with a 10 point moving average.

[5] = a3/(34-IAM stationary phase (0.5 × 1.3 cm)), read-out: Kd (frontal chromatography)

With `CN1[C@@H]2CC[C@H]1C[C@@H](OC(=O)C(CO)c1ccccc1)C2` (stereo partly shown) [Atropine] the Kd (α3/β4 nAChR [1]) was 14600 nM.
With `C[N+](C)(C)CCOC(N)=O` [Carbachol] the “mobile phase concentration required to decrease the retention volume of 60 pM [3H]-EB from 9.5 ml to 6 ml” value (α3/β4 nAChR [1]) was 1,200 nM, the Kd (α3/β4 nAChR [1]; [5]) was 1280 nM and the Kd (α3/β4 nAChR [2]) was 3840 nM.
In the case of `CN1C(=O)CN=C(c2ccccc2)c2cc(Cl)ccc21` [Diazepam], the Kd (GABAA receptor [3]) is reported as 1.3 nM and the Kd (GABAA receptor [4]) is reported as 1 nM.
`c1cncc(OC[C@@H]2CCN2)c1` [A85380] was tested, and the Kd (α3/β4 nAChR [1]; [5]) was 17.2 ± 0.5 nM, the “mobile phase concentration required to decrease the retention volume of 60 pM [3H]-EB from 9.5 ml to 6 ml” value (α3/β4 nAChR [1]; α3/β4 nAChR column (0.5×1.25 cm)) was 1.7 nM and the Kd (α3/β4 nAChR [2]) was 73.6 ± 6.3 nM.
With `CN1CCCC1c1cccnc1` (single isomer, unassigned; (-)) [(−)-Nicotine] the “mobile phase concentration required to decrease the retention volume of 60 pM [3H]-EB from 9.5 ml to 6 ml” value (α3/β4 nAChR [1]) was 45 nM.
